Entries after “also recorded” stand apart in the source; their conditions may differ.
What was measured:
[1] = tested on: E2C-TATA-luciferase reporter plasmid carrying a single E2C binding site; assay: Luciferase reporter assay, E2C-TATA-luc in HeLa cells; assay type: cell-based; details: 4-OHT
Procedure: A, structure of ER fusion proteins. E2C, six finger protein; L, flexible peptide linker. B, fusion proteins with a single ER-LBD bind as dimers. HeLa cells were cotransfected with a C7-ER-VP64 expression vector, and the indicated TATA luciferase reporter plasmids carrying either one or two C7 binding sites. 24 h after transfection, cells were either left untreated (−), or 100 nM 4-OHT was added (+). Luciferase activity in total cell extracts was measured 48 h after transfection. Each bar represents the mean value (+/−SD) of duplicate measurements. […] C, D, regulation of transcription through a single binding site by fusion proteins with two ER-LBDs. HeLa cells were cotransfected with the indicated expression vectors and the E2C-TATA-luciferase reporter plasmid, carrying a single E2C binding site upstream of a TATA box. 4-OHT induction and measurement of luciferase activity was carried out as described in B.
A, structure of single-chain RXR/EcR fusion proteins. B, regulation of transcription through a single binding site. HeLa cells were cotransfected with the indicated expression vectors and the E2C-TATA-luciferase reporter plasmid, carrying a single E2C binding site. 24 h after transfection, cells were either left untreated (−), or 5 μM Ponasterone A was added (+). Luciferase activity in total cell extracts was measured 48 h after transfection.
(§1) Luciferase and βP-gal reporter assays.
To overcome these problems, we produced two types of ER-based chimeric regulators, designed to be capable of regulating gene expression through a single binding site in a hormone-dependent manner. In the first strategy, a heterodimeric regulator was generated consisting of the engineered zinc finger protein E2C fused to an ER LBD, as well as an ER LBD fused to a VP64 activation domain (FIG. 2A). […] Addition of hormone led to a 3- to 5-fold stimulation of luciferase expression, indicating the formation of functional heterodimers. […]

[2] = tested on: 10×N1-TATA-β-gal reporter (with B3-PR-VP16 and N1-ER-VP64) in HeLa cells; assay: Dual reporter assay, β-gal; assay type: cell-based; details: HeLa cells expressing B3-PR-VP16 and N1-ER-VP64
Excerpt: (§2) RU486- and Tamoxifen-inducible promoter constructs. 10×C7-TATA, 10×B3-TATA, and 10×N1-TATA fragments were assembled from two pairs of complementary oligonucleotides each and cloned into Sac1-Xma1 linearized pGL3-Basic (Promega), upstream of the firefly luciferase coding region, creating the plasmids 10×C7-TATA-luc, 10×B3-TATA-luc, and 10×N1-TATA-luc. To generate the 10×N1-TATA-lacZ reporter construct, the lacZ coding region was excised from pβgal-Basic (Clontech) and used to replace the luciferase coding region of 10×N1-TATA-luc via Hind3-BamH1 digestion. Luciferase and βP-gal reporter assays. […] Concomitant regulation of multiple promoters. Zinc finger technology has made a large repertoire of DNA binding specificities available for use in protein engineering [[…]., and Barbas, C. F., III (1998) Proc. Natl. Acad. Sci. USA 95, 14628-14633; […]., and Barbas, C. F., III (1999) Proc. Natl. Acad. Sci. USA 96, 2758-2763; […]., and Barbas, C. F., III (2000) Proc. Natl. Acad. Sci. USA 97, 1495-1500]. The availability of different steroid hormone receptor-derived regulatory domains [Littlewood, T. D., Hancock, […]., Parker, M. G., and Evan, G. I. (1995) Nucl. […] The transfected cells were treated with either RU486 or 4-OHT and the luciferase and β-gal activities were monitored.

[3] = target: ER-VP64 (mouse) (UniProt P19785); assay: cell-based or functional assay
[4] = target: T1, hPR (aa645-914) LBD (Homo sapiens, UniProt P06401); assay: Ligand crossreactivity on PR fusion, 10×C7-TATA-luc reporter; assay type: cell-based; details: PR LBD fusion proteins
T1 construct: The human PR truncated LBD (aa645-914) was amplified from PAPCMVGL914VPc′-SV; expressed in transfected cells; host or cells: HeLa cells, effector plasmid in pcDNA3.1(+)Zeo
T1 sequence (P06401 645-914): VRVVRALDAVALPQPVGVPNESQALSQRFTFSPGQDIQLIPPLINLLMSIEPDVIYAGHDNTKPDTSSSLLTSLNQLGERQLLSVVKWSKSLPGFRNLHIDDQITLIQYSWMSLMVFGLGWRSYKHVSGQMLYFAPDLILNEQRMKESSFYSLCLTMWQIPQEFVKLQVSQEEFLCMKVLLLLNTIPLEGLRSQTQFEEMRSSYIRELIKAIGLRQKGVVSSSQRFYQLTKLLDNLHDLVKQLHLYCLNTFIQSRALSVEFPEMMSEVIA
Procedure: as §1
The chimeric transcriptional regulators were then tested for their ability to regulate the 10×C7-TATA-luc reporter plasmid in a hormone dependent manner. 10×C7-TATA-luc contains ten C7 binding sites [5′-GCG TGG GCG-3′] spaced by 5 nucleotides, and a TATA box, upstream of the firefly luciferase coding region. […] RU486 stimulated the activity of VP16-C7-PR 26-fold, while 4-OHT led to a 43-fold activation of VP16-C7-ER. […] The presence of a NLS in either position was not only not required, but even undesirable, since it led to an increased basal (i.e. hormone-independent) activity of the fusion constructs, presumably through increased nuclear localization. Thus, the hPR (aa645-914) and mER (aa281-599, G525R) LBDs are able to confer hormone-dependence onto the zinc finger protein C7.

[5] = tested on: 10×B3-TATA-luc reporter (with B3-PR-VP16 and N1-ER-VP64) in HeLa cells; assay: Dual reporter assay, luciferase; assay type: cell-based; details: HeLa cells expressing B3-PR-VP16 and N1-ER-VP64
Excerpt: as §2

**Q.** For “E2C-scER/18-VP64: single-chain fusion of E2C, two ER LBDs joined by 18 amino acid linker, VP64”, which “hormone-dependent activation of E2C-TATA-luc reporter” value (“hormone-dependent activation” below) [1] is on record?
**A.** Its value is “efficiently activated”.

**Q.** With “E2C-scER/30-VP64: single-chain fusion of E2C, two ER LBDs joined by 30 amino acid linker, VP64” as the molecule, how does the “hormone-dependent activation” value [1] read?
**A.** The value was “efficiently activated”.

**Q.** Which “β-gal reporter gene activity (10×N1-TATA-β-gal)” value [2] does the source give for `CC#C[C@]1(O)CC[C@H]2[C@@H]3CCC4=CC(=O)CCC4=C3[C@@H](c3ccc(N(C)C)cc3)C[C@@]21C` [RU486, 11β-(4-dimethylaminophenyl)-17β-hydroxy-17α-propinyl-4,9-e stradiene-3-one] here?
**A.** Its value is “no effect”.

**Q.** With E2C-ER (from UniProt P19785 281-599) as the molecule, how does the luciferase expression from the E2C-TATA-luc reporter (single E2C site) in HeLa cells, stimulation by 4-OHT [3] read?
**A.** The luciferase expression from the E2C-TATA-luc reporter (single E2C site) in HeLa cells, stimulation by 4-OHT was 3 to 5 fold.

**Q.** With 4-hydroxytamoxifen [4-OHT] as the molecule, how does the “crossreactivity between 4-OHT and PR” value [4] read?
**A.** Its value is “no detectable crossreactivity; also recorded: no detectable crossreaction”.

**Q.** What about the “luciferase expression (10×B3-TATA-luc)” value [5] of the same molecule?
**A.** The value was “did not affect”.

**Q.** And the “β-gal reporter gene activity (10×N1-TATA-β-gal)” value [2]?
**A.** Its value is “efficiently activated”.

B1: ER-VP64: ER LBD fused to a VP64 activation domain (protein)
chain: RNEMGASGDMRAANLWPSPLVIKHTKKNSPALSLTADQMVSALLDAEPPMIYSEYDPSRPFSEASMMGLLTNLADRELVHMINWAKRVPGFGDLNLHDQVHLLECAWLEILMIGLVWRSMEHPGKLLFAPNLLLDRNQGKCVEGMVEIFDMLLATSSRFRMMNLQGEEFVCLKSIILLNSGVYTFLSSTLKSLEEKDHIHRVLDKITDTLIHLMAKAGLTLQQQHRRLAQLLLILSHIRHMSNKRMEHLYNMKCKNVVPLYDLLLEMLDAHRLHAPASRMGVPPEEPSQTQLATTSSTSAHSLQTYYIPPEAEGFPNTI
modifications: left off: large carriers
**Q.** How did the “hormone-dependent activation” value [1] turn out when B1 was run?
**A.** Its value is “inactive”.
